Reference: patent US20030134851A1, “Methods and compositions for providing glutamine” (priority 2001, published 2003)
“Also recorded” adds a separate entry of the source.

What was measured:
[1] = tested on: intestinal damage caused by protein-energy malnutrition; assay: Intestinal damage caused by protein-energy malnutrition in pigs; assay type: in vivo, pig; settings: for Ileal mucosa histology (electron transmission microscopy) / Jejunal mucosa histology (electron transmission microscopy): malnourished pigs fed ENSURE PLUS plus supplement; for Alkaline phosphatase (AP) activity in jejunum: versus caseinate supplement; for T helper (CD4+) subpopulation of intra-epithelial lymphocytes in jejunum: versus control group
Description: A study was conducted to evaluate the potential effects of N-acetyl-L-glutamine versus free glutamine on intestinal damage caused by protein-energy malnutrition in pigs. In this study, 5-week-old domestic pigs, were provided by a certified farm. The pigs were randomly assigned to one of two groups. In one group 3 pigs were freely fed with ENSURE PLUS® (Ross Products Division, Abbott Laboratories) for 30 days. In the second group, 9 pigs were also fed with ENSURE PLUS®, but at only 20% of the daily intake of the first group. This second group was divided into 3 subgroups with […] each to receive a daily supplement of either calcium caseinate, glutamine or N-acetyl-L-glutamine. Daily average energy and protein supplied to the control group ranged from 3300 kcal, 138 g protein at the beginning of the study to 4500 kcal, 187 g protein at the end of the study. In the second group, supplements of caseinate, glutamine and N-acetyl-L-glutamine provided an additional 1.32 grams nitrogen equivalents per day (basically, 6.89 grams L-glutamine, or 8.87 grams N-acetyl-L-glutamine or 8.42 grams caseinate protein are supplemented per day). After 30 days, all pigs were deprived of food for 16 hours. The animals were then weighed, sedated, anesthetized and sacrificed through terminal bleeding by jugular puncture.
The entire small intestine was quickly removed. The 60 cm segment of the small intestine from the ligament of Treitz was considered proximal jejunum. A 5 cm long segment from the ligament of Treitz was selected for histological analysis of jejunum. The 60 cm length closest to the ileo-cecal valve was considered the distal ileum. A 5 cm segment from the ileo-cecal valve was selected for histological analysis of the ileum. The intestine segments were rinsed thoroughly with ice-cold saline solution, opened length-wise and blotted dry. The mucosa was scraped off using a glass slide onto a cold Petri dish, weighed, immediately frozen under liquid nitrogen and stored at −80° C. until biochemical analysis.
Jejunal and ileal mucosa were homogenized in 10 mM phosphate buffer (pH 7.4) using a mechanical Potter homogenizer, for protein and DNA assays. For the determination of the enzymatic markers of injury, functionality and antioxidant defense system, the mucosal homogenates were centrifuged at 3000 g for 10 min. and the resulting supernatants were used for enzymatic assays. For the determination of total glutathione, the mucosa was homogenized in 5% trichloroacetic acid and centrifuged at 8000 g for 5 min.
Biochemical analysis and immunological analysis were performed on the specimens. Concentrations of intestinal mucosa protein and DNA were determined using the Bradford method (Analytical Biochemistry, Volume 72, pages 248-254, 1976) and the method of Labarca and Paigen (Analytical Biochemistry, Volume 102 (2), pages 344-352, 1980), respectively. The degree of intestinal damage caused by malnutrition was evaluated by measuring alkaline phosphatase activity using the method of Goldstein (R. Goldstein, T. Klein, S. Freier and J. Menczel. American Journal of Clinical Nutrition 24: 1224-1231, 1970).
Glutathione reductase activity was evaluated by the method of Carlberg and Mannervik (I. Carlberg and B. Mannervik, Methods in Enzymology, Volume 113, pp 484-490, 1985). Glutathione transferase activity was measured using the method of Habig, et al. (W. H. Habig, M. J. Pabst and W. B. Jakoby, Journal of Biological Chemistry. […]). Glutathione peroxidase activity was assayed by the method of Flohe and Gunzler (L. Flohe and W. A. Gunzler, Methods in Enzymology, Volume 105, pp 114-121, 1984), and the non-protein sulfhydryl content (reported as reduced glutathione equivalents) was determined by the method of Anderson (M. E. Anderson, Methods in Enzymology, 133: 548-554, 1985). […]

[2] = Aqueous N-acetyl-L-glutamine and glutamine heat stability at 100° C. (HPLC); assay type: physicochemical; settings: for Stability during incubation at 100° C. (in words): aqueous solution, 2 hour incubation at 100° C.
Description: In order to test the stability of aqueous N-acetyl-glutamine upon heating, the following procedure was followed. Aqueous solutions of N-acetyl-L-glutamine (obtained from Sigma, catalog no. A-9125) and glutamine (obtained from Aldrich, catalog no. G-320-2) at approximately 1 mg/mL (5.3 mM and 6.8 mM, respectively) were prepared without pH adjustment. The pH of the resulting N-acetyl-L-glutamine solution was 2.9 and the pH of the glutamine solution was 6.0. The solutions were heated at 100° C. using a Reacti-Therm™ stirring heat block with sealed 4 mL vessels, one for each time point: 15 minutes, 30 minutes, 1 hour and 2 hours. The samples were removed from the heat block and immediately placed into ice until cool. An aliquot of each sample was filtered through 0.45 micrometer filters (Millipore Millex®-HV, 25 mm) for assessment by HPLC. HPLC analysis was conducted using an Inertsil® C8, 5 micrometer, 4.6×250 mm column (obtained from Keystone Scientific, Inc., Bellefonte, Pa.). The mobile phase was water adjusted to pH 2.2 with HCl (isocratic at 1 mL/minute). The injection volume was 10 microliters. Ultraviolet detection was at 214 nm.

[3] = approx. 1 mg/mL, pH 6.0, 100° C., 30 min
[4] = approx. 1 mg/mL, pH 6.0, 100° C., 60 min
[5] = approx. 1 mg/mL, pH 6.0, 100° C., 120 min

With `CC(=O)N[C@@H](CCC(N)=O)C(=O)O` [N-acetyl-L-glutamine] the “Prevention of overt signs of inflammation in the epithelial lining of the gastrointestinal tract” value ([1]; electron transmission micrographs, malnourished pigs) was “more effective than glutamine”, the “Ileal mucosa histology (electron transmission microscopy)” value ([1]; 30 days) was “less affected by protein-energy malnutrition” and the “Jejunal mucosa histology (electron transmission microscopy)” value ([1]; 30 days) was “less affected by protein-energy malnutrition”. For the same molecule, the “Glutathione transferase activity in small intestine” value ([1]; malnourished pigs, 30 days) was “less affected by the malnutrition process”, the “Number of CD1+ intra-epithelial lymphocytes in jejunum” value ([1]; malnourished pigs, 30 days) was “significantly higher than in the rest of the groups” and the “Prevention of biochemical and immunological changes induced by malnutrition in the small intestine” value ([1]; malnourished pigs, 30 days) was “performed better than the glutamine or caseinate supplemented groups; also recorded: positive effect”. For the same molecule, the “Intestinal contents of protein (jejunum and ileum) and DNA (ileum)” value ([1]; malnourished pigs, 30 days, versus caseinate or glutamine supplement) was “tended to be higher”, the “Amount of GSH in the intestinal mucosa” value ([1]; malnourished pigs, 30 days, versus caseinate or glutamine, did not reach significance) was “tended to be slightly higher” and the “Alkaline phosphatase (AP) activity in jejunum” value ([1]; malnourished pigs, 30 days) was “tended to have higher AP activity”. For the same molecule, the “Total number of peyer's patch lymphocytes in jejunum” value ([1]; malnourished pigs, versus caseinate- or glutamine-supplemented groups) was “tendency of the total number of peyer's patch lymphocytes to be higher”, the “T helper (CD4+) subpopulation of intra-epithelial lymphocytes in jejunum” value ([1]; malnourished pigs) was “significantly higher” and the “NAQ (N-acetyl-L-glutamine) in N-acetyl-L-glutamine solution” value (from here on “NAQ (N-acetyl-L-glutamine)”) ([2]; approx. 1 mg/mL (5.3 mM), pH 2.9, 100° C., 0 min) was 99.7 area %. For the same molecule, the “NAQ (N-acetyl-L-glutamine)” value ([2]; approx. 1 mg/mL, pH 2.9, 100° C., 30 min) was 98.1 area %, the “NAQ (N-acetyl-L-glutamine)” value ([2]; approx. 1 mg/mL, pH 2.9, 100° C., 60 min) was 96.9 area % and the “NAQ (N-acetyl-L-glutamine)” value ([2]; approx. 1 mg/mL, pH 2.9, 100° C., 120 min) was 93.4 area %. The “Stability during incubation at 100° C. (in words)” value [2] was “much more stable than glutamine”, the “NAE (N-acetyl-L-glutamic acid) in N-acetyl-L-glutamine solution” value (shortened to “NAE (N-acetyl-L-glutamic acid)”) ([2]; pH 2.9, 100° C., 0 min) was 0.3 area % and the “2,6-DPA (2,6-dioxopiperidinylacetamide) in N-acetyl-L-glutamine solution” value (“2,6-DPA (2,6-dioxopiperidinylacetamide)” below) ([2]; pH 2.9, 100° C., 30 min) was 0.6 area %. The “NAE (N-acetyl-L-glutamic acid)” value ([2]; pH 2.9, 100° C., 30 min) was 1.2 area %, the “2,6-DPA (2,6-dioxopiperidinylacetamide)” value ([2]; pH 2.9, 100° C., 60 min) was 1.3 area % and the “NAE (N-acetyl-L-glutamic acid)” value ([2]; pH 2.9, 100° C., 60 min) was 1.8 area %. For the same molecule, the “2,6-DPA (2,6-dioxopiperidinylacetamide)” value ([2]; pH 2.9, 100° C., 120 min) was 2.7 area %, the “NAE (N-acetyl-L-glutamic acid)” value ([2]; pH 2.9, 100° C., 120 min) was 3.7 area % and the “PGA (pyroglutamic acid) in N-acetyl-L-glutamine solution” value ([2]; pH 2.9, 100° C., 120 min) was 0.2 area %.
With `NC(=O)CC[C@H](N)C(=O)O` [Glutamine, glutamine] the “Ileal mucosa histology (electron transmission microscopy)” value ([1]; 30 days) was “displayed loss of microvilli, wide intercellular spaces, and intense lymphocytes infiltration”, the “Jejunal mucosa histology (electron transmission microscopy)” value ([1]; 30 days) was “displayed shortened microvilli, expanded intercellular spaces, and irregular lobulated nucleus” and the “Prevention of biochemical and immunological changes induced by malnutrition in the small intestine” value ([1]; malnourished pigs, 30 days) was “no clear effect”. The “Alkaline phosphatase (AP) activity in jejunum” value ([1]; malnourished pigs, 30 days) was “tended to have higher AP activity”, the “Total number of peyer's patch lymphocytes in ileum” value ([1]; malnourished pigs, versus N-acetyl-glutamine-supplemented or control groups) was “significantly lower” and the “T helper (CD4+) subpopulation of intra-epithelial lymphocytes in jejunum” value ([1]; malnourished pigs) was “significantly higher”. For the same molecule, the “GLN (glutamine) in glutamine solution” value ([2]; approx. 1 mg/mL (6.8 mM), pH 6.0, 100° C., 0 min) was 100.0 height %, the “PGA (pyroglutamic acid) in glutamine solution” value (“PGA … in glutamine solution” for short) ([2]; approx. 1 mg/mL, pH 6.0, 100° C., 0 min) was “none detected” and the “GLN (glutamine) in glutamine solution” value [2, 3] was 90.2 height %. For the same molecule, the “PGA … in glutamine solution” value [2, 3] was 9.8 height %, the “GLN (glutamine) in glutamine solution” value [2, 4] was 80.0 height % and the “PGA … in glutamine solution” value [2, 4] was 20.0 height %. The “GLN (glutamine) in glutamine solution” value [2, 5] was 53.6 height %, the “GLU (glutamate) in glutamine solution” value [2, 5] was 10.6 height % and the “PGA … in glutamine solution” value [2, 5] was 35.8 height %. For the same molecule, the “Stability during incubation at 100° C. (in words)” value [2] was “not stable”.
